Assay results reported in patent US20020016341A1, “Heterocyclic thioester and ketone hair growth compositions and uses” (priority 1998, published 2002).

The molecules below were run against FKBP12 (Homo sapiens, UniProt P62942) (assay: Ki test: inhibition of peptidyl-prolyl isomerase (rotamase) activity, chymotrypsin-coupled assay). Details: not given.
Assay type: biochemical
From the text: The inhibition of the prolyl peptidyl cis-trans isomerase activity of FKBP may be measured as an indicator of this affinity.
Inhibition of the peptidyl-prolyl isomerase (rotamase) activity of the compounds used in the inventive methods and pharmaceutical compositions can be evaluated by known methods described in the literature (Harding et al., Nature, 1989, 341:758-760; Holt et al. J. Am. Chem. Soc., 115:9923-9938).
The cis-trans isomerization of an alanine-proline bond in a model substrate, N-succinyl-Ala-Ala-Pro-Phe-p-nitroanilide, is monitored spectrophotometrically in a chymotrypsin-coupled assay, which releases paranitroanilide from the trans form of the substrate. The inhibition of this reaction caused by the addition of different concentrations of inhibitor is determined, and the data is analyzed as a change in first-order rate constant as a function of inhibitor concentration to yield the apparent K1 values.
In a plastic cuvette are added […] of ice cold assay buffer (25 mM HEPES, pH 7.8, 100 mM NaCl), 10 mL of FKBP (2.5 mM in 10 mM Tris-Cl pH 7.5, 100 mM NaCl, 1 mM dithiothreitol), 25 mL of chymotrypsin (50 mg/ml in 1 mM HCl) and […] of test compound at various concentrations in dimethyl sulfoxide. The reaction is initiated by the addition of 5 mL of substrate (succinyl-Ala-Phe-Pro-Phe-para-nitroanilide, 5 mg/mL in 2.35 mM LiCl in trifluoroethanol).
The absorbance at 390 nm versus time is monitored for 90 seconds using a spectrophotometer and the rate constants are determined from the absorbance versus time data files.

Chain of FKBP12 (P62942 whole entry, species assumed): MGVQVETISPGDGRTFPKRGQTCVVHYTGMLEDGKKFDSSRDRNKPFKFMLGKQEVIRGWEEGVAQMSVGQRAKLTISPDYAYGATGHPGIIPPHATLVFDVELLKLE

Q: How did the Ki turn out when `O=C(C(=O)N1CCCCC1C(=O)CCCCCc1ccccc1)C1CCCCC1` (centres unmarked) [Compound 68] was run?
A: 284 nM

Q: Which Ki does the source give for `CC(C)(C)C(=O)C(=O)N1CCCCC1C(=O)C(CCc1ccccc1)CCc1ccccc1` (centres unmarked) [Compound 69] here?
A: 49 nM

Same assay, conditions: apparent Ki, rotamase inhibition; read-out: Ki

Q: With “4,4-Di(para-fluorophenyl)butyl 1-(3,3-dimethyl-2-oxopentanoyl)-2-pyrrolidinecarbothioate [Compound 46]” as the molecule, how does the Ki read?
A: 757 nM

Q: “4-Phenyl-1-butyl (2S)-1-(3,3-dimethyl-1,2-dioxopentyl)-2-pyrrolidinecarbothioate [Compound 34]” was tested. Which Ki did it give?
A: 34 nM

Q: Which Ki does the source give for `CCC(C)(C)C(=O)C(=O)N1CCC[C@H]1C(=O)CCCC(c1ccc(F)cc1)c1ccc(F)cc1` [Compound 70, 1-{(2S)-2-[5,5-di(4-Fluorophenyl)pentanoyl]-2-pyrrolidine}-3,3-dimethyl-1,2-pentanedione] here?
A: 457 nM

Q: For “3-Phenyl-1-propyl 1-(3,3-dimethyl-1,2-dioxobutyl)-2-piperidinecarbothioate [Compound 29]”, which Ki is on record?
A: 59 nM

Q: For “3-(para-Methoxyphenyl)-1-propyl 1-(2-phenyl-1,2-dioxoethyl)piperidine-2-carbothioate [Compound 43]”, which Ki is on record?
A: 259 nM

Q: Which Ki does the source give for “3-Phenyl-1-propyl (2S)-1-(2-cyclohexyl-1,2-dioxoethyl)-2-pyrrolidinecarbothioate [Compound 32]” here?
A: 362 nM

Q: How did the Ki turn out when “3-(3-Fluorophenyl)propyl (2S)-1-(3,3-dimethyl-2-oxopentanoyl)-2-pyrrolidinecarbothioate [Compound 58]” was run?
A: 79 nM

Q: “3-(1-Naphthyl)propyl (2S)-1-(3,3-dimethyl-2-oxopentanoyl)-2-pyrrolidinecarbothioate [Compound 47]” was tested. Which Ki did it give?
A: 21 nM

Q: With “4-Phenyl-1-butyl 1-(1,2-dioxo-3,3-dimethylbutyl)-2-piperidinecarbothioate [Compound 39]” as the molecule, how does the Ki read?
A: 347 nM

Q: Which Ki does the source give for “3-(1-Naphthyl)-1-propyl 1-(3,3-dimethyl-1,2-dioxopentyl)piperidine-2-carbothioate [Compound 44]” here?
A: 188 nM

Q: With `CCC(C)(C)C(=O)C(=O)N1CCC[C@H]1C(=O)SCc1csc2ccccc12` [Compound 11, (3-Thioindolyl)methyl (2S)-1-(3,3-dimethyl-1,2-dioxopentyl)-2-pyrrolidinecarbothioate] as the molecule, how does the Ki read?
A: 299 nM

Q: How did the Ki turn out when `CCC(C)(C)C(=O)C(=O)N1CCCCC1C(=O)SCCCc1ccc2ccccc2c1` [Compound 53, 3-(2-Naphthyl)propyl (2R,S)-1-(3,3-dimethyl-2-oxopentanoyl)-2-piperidinecarbothioate] was run?
A: 261 nM

Q: With “1,5-Diphenyl-3-pentyl 1-(3,3-dimethyl-1,2-dioxopentyl)-2-piperidinecarbothioate [Compound 40]” as the molecule, how does the Ki read?
A: 1230 nM

Q: Which Ki does the source give for `CCC(C)(C)C(=O)C(=O)N1CCC[C@H]1C(=O)SCCC(c1ccc(F)cc1)c1ccc(F)cc1` [Compound 45, 3,3-Di(para-fluoro)phenyl-1-propyl (2S)-1-(3,3-dimethyl-1,2-dioxopentyl)-2-pyrrolidinecarbothioate] here?
A: 31 nM

Q: For “2-Phenyl-1-ethyl (2S)-1-(2-cyclohexyl-1,2-dioxoethyl)-2-pyrrolidinecarbothioate [Compound 12]”, which Ki is on record?
A: 442 nM

Q: For “2,2-Diphenylethyl (2S)-1-(3,3-dimethyl-2-oxopentanoyl)-2-piperidinecarbothioate [Compound 49]”, which Ki is on record?
A: 1330 nM

Q: Which Ki does the source give for “4-Phenyl-1-butyl (2S)-1-(2-cyclohexyl-1,2-dioxoethyl)-2-pyrrolidinecarbothioate [Compound 33]” here?
A: 1700 nM

Q: For “3-(3-Fluorophenyl)propyl 1-(3,3-dimethyl-2-oxopentanoyl)-2-piperidinecarbothioate [Compound 64]”, which Ki is on record?
A: 163 nM

Q: Which Ki does the source give for “2-Phenyl-1-ethyl (2S)-1-(1-cyclopentyl-1,2-dioxoethyl)-2-pyrrolidinecarbothioate [Compound 28]” here?
A: 108 nM

Q: How did the Ki turn out when “2-Phenyl-1-ethyl 1-(3,3-dimethyl-1,2-dioxopentyl)-2-piperidinecarbothioate [Compound 10]” was run?
A: 12 nM

Q: How did the Ki turn out when “3-(2-Fluorophenyl)propyl (2S)-1-(3,3-dimethyl-2-oxopentanoyl)-2-pyrrolidinecarbothioate [Compound 57]” was run?
A: 57 nM

Q: How did the Ki turn out when “4-Phenylbutyl 1-(3,3-dimethyl-2-oxopentanoyl)-2-piperidinecarbothioate [Compound 59]” was run?
A: 962 nM

Q: How did the Ki turn out when “3-(3-Chlorophenyl)propyl (2S)-1-(3,3-dimethyl-2-oxopentanoyl)-2-pyrrolidinecarbothioate [Compound 54]” was run?
A: 37 nM

Q: Which Ki does the source give for “3-(2-Chlorophenyl)propyl (2S)-1-(3,3-dimethyl-2-oxopentanoyl)-2-pyrrolidinecarbothioate [Compound 61]” here?
A: 139 nM

Q: How did the Ki turn out when “2-Phenyl-1-ethyl 1-(2-phenyl-1,2-dioxoethyl)-2-piperidinecarbothioate [Compound 14]” was run?
A: 313 nM

Q: Which Ki does the source give for “3-Phenylpropyl 1-(3,3-dimethyl-2-oxopentanoyl)-2-piperidinecarbothioate [Compound 60]” here?
A: 90 nM

Q: Which Ki does the source give for “3-(3-Pyridyl)-1-propyl (2S)-1-(2-cyclohexyl-1,2-dioxoethyl)-2-pyrrolidinecarbothioate [Compound 35]” here?
A: 62 nM

Q: `CCC(C)(C)C(=O)C(=O)N1CCC[C@H]1C(=O)CCCCc1ccccc1` [Compound 1] was tested. Which Ki did it give?
A: 31 nM

The molecules below were run on C57 black 6 mice (assay: In vivo hair generation test, Experiment A). Details: 30 μM topical, 3 applications over 5 days, after six weeks.
From the text: Care was taken not to nick or cause abrasion to the underlaying dermal layers. The animals were in anagen growth phase, as indicated by the pinkish color of the skin. […] Hair growth was quantitated by the percent of shaved area covered by new hair growth during this time period.

Q: With `CCC(C)(C)C(=O)C(=O)N1CCC[C@H]1C(=O)OCCCc1cccnc1` [GPI 1046, 3-(3-pyridyl)-1-propyl (2s)-1-(3,3-dimethyl-1,2-dioxopentyl)-2-pyrrolidinecarboxylate] as the molecule, how does the “hair regrowth in shaved area” value read?
A: essentially complete hair regrowth

These molecules were tested on C57 black 6 mice (assay: In vivo hair generation test, Experiment B). Details: one micromole per milliliter topical, three times per week, 14 days after initiation of treatment.
Experimental: Care was taken not to nick or cause abrasion to the underlying dermal layers. The animals were in anagen growth phase when shaved. […] The animals were treated three times per week, and hair growth was evaluated 14 days after initiation of treatment.

Q: How did the “hair growth (relative hair growth index, FIG. 5)” value turn out when `CCC(C)(C)C(=O)C(=O)N1CCC[C@H]1C(=O)SCCC(c1ccccc1)c1ccccc1` [GPI 1234] was run?
A: dramatic hair growth
